Laboratory results as given in ChEMBL document CHEMBL5360617, “C-2 Thiophenyl Tryptophan Trimers Inhibit Cellular Entry of SARS-CoV-2 through Interaction with the Viral Spike (S) Protein” (J Med Chem, 2023).

Columns and labels:
[1] = test system: SARS-CoV-2; test: (§1) Antiviral activity VSV-S pseudotyped SARS-CoV-2 Wuhan-Hu-1 harboring MN908947 mutant infected in human A549-ACE2 cells assessed as reduction in viral production at 10 uM preincubated with virus for 1 hrs followed by cell infection for 1 hrs and measured 24 hrs after replacement with fresh media with compound relative to control; format: functional, Severe acute respiratory syndrome coronavirus 2; parameters: scale not given: the % may be the effect or the level left; details: time 26 hrs
[2] = test system: SARS-CoV-2; test: as §1, with “Green monkey VeroE6/TMPRSS2” for “human A549-ACE2”; format: functional, Severe acute respiratory syndrome coronavirus 2; parameters: scale not given: the % may be the effect or the level left; details: time 26 hrs

SMILES | Activity [1] [%] | Activity [2] [%]
NCCOCCOCCC(=O)NCC(=O)NC(CCC(=O)NC(Cc1c(Sc2ccc([N+](=O)[O-])cc2)[nH]c2ccccc12)C(=O)O)(CCC(=O)NC(Cc1c(Sc2ccc([N+](=O)[O-])cc2)[nH]c2ccccc12)C(=O)O)CCC(=O)NC(Cc1c(Sc2ccc([N+](=O)[O-])cc2)[nH]c2ccccc12)C(=O)O (stereo unspecified) | >98 | >89
CCC(CC)COC(=O)[C@H](C)N[P@](=O)(OC[C@H]1O[C@@](C#N)(c2ccc3c(N)ncnn23)[C@H](O)[C@@H]1O)Oc1ccccc1 | >98 | >89
O=C(CCOCCOCCOCCOCCC(=O)NCC(=O)NC(CCC(=O)NC(Cc1c(Sc2ccc([N+](=O)[O-])cc2)[nH]c2ccccc12)C(=O)O)(CCC(=O)NC(Cc1c(Sc2ccc([N+](=O)[O-])cc2)[nH]c2ccccc12)C(=O)O)CCC(=O)NC(Cc1c(Sc2ccc([N+](=O)[O-])cc2)[nH]c2ccccc12)C(=O)O)NCC(=O)NC(CCC(=O)NC(Cc1c(Sc2ccc([N+](=O)[O-])cc2)[nH]c2ccccc12)C(=O)O)(CCC(=O)NC(Cc1c(Sc2ccc([N+](=O)[O-])cc2)[nH]c2ccccc12)C(=O)O)CCC(=O)NC(Cc1c(Sc2ccc([N+](=O)[O-])cc2)[nH]c2ccccc12)C(=O)O (stereo unspecified) | >98 | >89
